# Like-named read-outs stand apart in the source and are kept apart here.
# How the values were obtained:
# [1] = tested on: ivy-leaved morningglory (Ipomoea hederacea Jacq.); experiment: Test Example 19: pot test, soil treatment of ivy-leaved morningglory; format: in vivo; conditions: 14th day after treatment, read-out: Growth inhibition rate (%) of ivy-leaved morningglory, Measured value
# corn (Zea mays L.) = experiment: Test Example 18: pot test, soil treatment of corn; format: in vivo; conditions: 14th day after treatment, read-out: Growth inhibition rate (%) of corn, Measured value
# [2] = tested on: common lambsquarters (Chenopodium album L.); experiment: Test Example 4: pot test, foliar treatment of common lambsquarters; conditions: read-out: Growth inhibition rate (%) of lambsquarters, Measured value
# [3] = tested on: persian speedwell (Veronica persica Poir.); experiment: Test Example 12: pot test, foliar treatment of persian speedwell, 4.0 to 4.3 leaf-stage; format: in vivo; conditions: read-out: Growth inhibition rate (%) of persian speedwell, Measured value
# [4] = tested on: bermudagrass (Cynodon dactylon (L.) Pers.); experiment: Test Example 10: pot test, foliar treatment of bermudagrass, 2.2 to 2.5 leaf-stage; format: in vivo; conditions: read-out: Growth inhibition rate (%) of bermudagrass, Measured value
# [5] = tested on: japanese millet (Echinochloa esculenta (A. Braun) H. Scholz.); experiment: Test Example 13: pot test, soil treatment of japanese millet; format: in vivo
# [6] = tested on: shattercane (Sorghum bicolor (L.) Moench); experiment: Test Example 20: pot test, soil treatment of shattercane; format: in vivo; conditions: 14th day after treatment, read-out: Growth inhibition rate (%) of shattercane, Measured value
# [7] = tested on: wild oat (Avena fatua L.); experiment: Test Example 16: pot test, soil treatment of wild oat, 28th day; format: in vivo
# [8] = tested on: sunn-hemp (Crotalaria juncea L.); experiment: Test Example 15: pot test, soil treatment of sunn-hemp; format: in vivo; conditions: 28th day after treatment
# [9] = tested on: sticky chickweed (Cerastium glomeratum Thuill.); experiment: Test Example 3: pot test, foliar treatment of sticky chickweed; format: in vivo; conditions: read-out: Growth inhibition rate (%) of sticky chickweed, Measured value
# [10] = tested on: rostrate sesbania (Sesbania rostrata Bremek. & Oberm.); experiment: Test Example 6: pot test, soil treatment of rostrate sesbania, 28th day; format: in vivo; conditions: 28th day after treatment
# [11] = tested on: black nightshade (Solanum nigrum L.); experiment: Test Example 2: pot test, foliar treatment of black nightshade; format: in vivo
# [12] = tested on: persian speedwell (Veronica persica Poir.); experiment: Test Example 1: pot test, foliar treatment of persian speedwell; format: in vivo; conditions: read-out: Growth inhibition rate (%) of persian speedwell, Measured value
# [13] = tested on: wild oat (Avena fatua L.); experiment: Test Example 17: pot test, soil treatment of wild oat, 14th day; format: in vivo; conditions: 14th day after treatment, read-out: Growth inhibition rate (%) of wild oat, Measured value
# [14] = tested on: wild oat (Avena fatua L.); experiment: Test Example 5: pot test, soil treatment of wild oat, 13th day; format: in vivo; conditions: soil treatment one day after sowing, 13th day after treatment; for inhibition at 25 g/ha / inhibition at 50 g/ha: Avena fatua, 24 h, read-out: Growth inhibition rate (%) of wild oat, Measured value
# [15] = tested on: rostrate sesbania (Sesbania rostrata Bremek. & Oberm.); experiment: Test Example 14: pot test, soil treatment of rostrate sesbania, 14th day; format: in vivo; conditions: 14th day after treatment
# [16] = tested on: black nightshade (Solanum nigrum L.); experiment: Test Example 9: pot test, soil treatment of black nightshade; format: in vivo; conditions: 28th day after treatment, read-out: Growth inhibition rate (%) of black nightshade, Measured value
# [17] = tested on: sunn-hemp (Crotalaria juncea L.); experiment: Test Example 7: pot test, soil treatment of sunn-hemp; format: in vivo
# [18] = tested on: velvetleaf (Abutilon theophrasti Medic.); experiment: Test Example 8: pot test, soil treatment of velvetleaf; format: in vivo; conditions: 28th day after treatment, read-out: Growth inhibition rate (%) of velvetleaf, Measured value
# [19] = tested on: bermudagrass (Cynodon dactylon (L.) Pers.); experiment: Test Example 11: pot test, foliar treatment of bermudagrass, 3.8 to 4.3 leaf-stage; format: in vivo; conditions: read-out: Growth inhibition rate (%) of bermudagrass, Measured value
# [20] = dose 50 g/ha, 2.2 to 2.5 leaf-stage, 28th day after treatment
# [21] = Crotalaria juncea, soil, read-out: Growth inhibition rate (%) of sunn-hemp, Measured value
compound,measurement,setting,value
"C=CCOC(=O)C(C)(C)OC(=O)c1cc(-n2c(=O)cc(C(F)(F)F)n(C)c2=O)ccc1Cl [Butafenacil, butafenacil]",inhibition at 10 g/ha,[1]; dose 10 g/ha,0%
same,inhibition at 100 g/ha,corn (Zea mays L.); dose 100 g/ha,20%
"CCOC(=O)C(Cl)Cc1cc(-n2nc(C)n(C(F)F)c2=O)c(F)cc1Cl (stereo not drawn) [Carfentrazone-ethyl, carfentrazone-ethyl]",inhibition at 27.4 g/ha,[2],92%
same,inhibition at 25 g/ha,[3],65%
same,inhibition at 20 g/ha,[4],0%
same,inhibition at 50 g/ha,[4],0%
"COc1cc(OC)nc(NC(=O)NS(=O)(=O)c2ncccc2C(F)(F)F)n1 [Flazasulfuron, 1-(4,6-dimethoxypyrimidin-2-yl)-3-(3-trifluoromethyl-2-pyridylsulfonyl)urea]",inhibition at 50 g/ha,"[5]; Echinochloa esculenta, dose 50 g/ha, soil treatment, 14th day after treatment, read-out: Growth inhibition rate (%) of japanese millet, Measured value",80%
same,inhibition at 12.5 g/ha,[6]; dose 12.5 g/ha,0%
same,inhibition at 12.5 g/ha,"[7]; Avena fatua, dose 12.5 g/ha, soil treatment, 28th day after treatment, read-out: Growth inhibition rate (%) of wild oat, Measured value",20%
same,inhibition at 25 g/ha,"[7]; Avena fatua, dose 25 g/ha, soil treatment, 28th day after treatment, read-out: Growth inhibition rate (%) of wild oat, Measured value",75%
same,inhibition at 25 g/ha,"[8]; Crotalaria juncea, dose 25 g/ha, read-out: Growth inhibition rate (%) of sunn-hemp, Measured value",0%
same,inhibition at 6.3 g/ha,"[9]; dose 6.3 g/ha, 3.3 to 4.0 leaf-stage, 21st day after treatment",92%
same,inhibition at 12.5 g/ha,"[10]; Sesbania, dose 12.5 g/ha, read-out: Growth inhibition rate (%) of rostrate sesbania, Measured value",25%
same,inhibition at 50 g/ha,"[11]; Solanum nigrum, dose 50 g/ha, 3.2 to 3.5 leaf-stage, 21st day after treatment, read-out: Growth inhibition rate (%) of black nightshade, Measured value",74%
same,dose required to completely suppress growth of black nightshade,[11]; flazasulfuron alone,≥ 50 g/ha
same,inhibition at 1.6 g/ha,[2],3%
same,inhibition at 25 g/ha,"[12]; dose 25 g/ha, 7 to 8 leaf-stage, 21st day after treatment",10%
same,inhibition at 25 g/ha,[13]; dose 25 g/ha,30%
same,inhibition at 50 g/ha,[1]; dose 50 g/ha,60%
same,inhibition at 25 g/ha,[14],40%
same,inhibition at 50 g/ha,[14]; dose 50 g/ha,70%
same,inhibition at 50 g/ha,"[15]; Sesbania, dose 50 g/ha, read-out: Growth inhibition rate (%) of rostrate sesbania, Measured value",50%
same,inhibition at 50 g/ha,[16]; dose 50 g/ha,85%
same,inhibition at 25 g/ha,"[3]; dose 25 g/ha, 4.0 to 4.3 leaf-stage, 28th day after treatment",0%
same,inhibition at 50 g/ha,"[17]; Crotalaria juncea, dose 50 g/ha, soil treatment, 28th day after treatment, read-out: Growth inhibition rate (%) of sunn-hemp, Measured value",55%
same,inhibition at 50 g/ha,[18]; dose 50 g/ha,88%
same,inhibition at 100 g/ha,[18]; dose 100 g/ha,88%
same,inhibition at 50 g/ha,[4]; [20],75%
same,inhibition at 100 g/ha,"[4]; dose 100 g/ha, 2.2 to 2.5 leaf-stage, 28th day after treatment",75%
same,inhibition at 12.5 g/ha,"[19]; dose 12.5 g/ha, 3.8 to 4.3 leaf-stage, 28th day after treatment",15%
same,inhibition at 12.5 g/ha,corn (Zea mays L.); dose 12.5 g/ha,70%
"CCOC(=O)COc1cc(-n2ncc(C(F)(F)F)c(C)c2=O)c(F)cc1Cl [Flufenpyr-ethyl, flufenpyr-ethyl]","Growth inhibition rate (%) of sunn-hemp, Measured value",[8]; dose 50 g/ha,0%
same,"Growth inhibition rate (%) of rostrate sesbania, Measured value",[15]; dose 5 g/ha,0%
"C#CCN1C(=O)COc2cc(F)c(N3C(=O)C4=C(CCCC4)C3=O)cc21 [Flumioxazin, flumioxazin]",inhibition at 250 g/ha,"[7]; Avena fatua, dose 250 g/ha, soil treatment, 28th day after treatment, read-out: Growth inhibition rate (%) of wild oat, Measured value",90%
same,inhibition at 100 g/ha,"[8]; Crotalaria juncea, dose 100 g/ha, read-out: Growth inhibition rate (%) of sunn-hemp, Measured value",0%
same,inhibition at 250 g/ha,"[10]; Sesbania, dose 250 g/ha, read-out: Growth inhibition rate (%) of rostrate sesbania, Measured value",70%
same,inhibition at 500 g/ha,[13]; dose 500 g/ha,75%
same,inhibition at 200 g/ha,"[15]; Sesbania, dose 200 g/ha, read-out: Growth inhibition rate (%) of rostrate sesbania, Measured value",75%
same,inhibition at 2.5 g/ha,[16]; dose 2.5 g/ha,0%
same,inhibition at 5 g/ha,"[4]; dose 5 g/ha, 2.2 to 2.5 leaf-stage, 28th day after treatment",20%
"COC(=O)CSc1cc(/N=c2\sc(=O)n3n2CCCC3)c(F)cc1Cl [Fluthiacet-methyl, fluthiacet-methyl]",inhibition at 50 g/ha,"[8]; Crotalaria juncea, dose 50 g/ha, read-out: Growth inhibition rate (%) of sunn-hemp, Measured value",0%
same,inhibition at 5 g/ha,"[15]; Sesbania, dose 5 g/ha, read-out: Growth inhibition rate (%) of rostrate sesbania, Measured value",0%
"CC(C)=C1OC(=O)N(c2cc(OC3CCCC3)c(Cl)cc2F)C1=O [Pentoxazone, pentoxazone]",inhibition at 100 g/ha,"[5]; Echinochloa esculenta, soil, read-out: Growth inhibition rate (%) of japanese millet, Measured value",0%
same,inhibition at 250 g/ha,"[7]; Avena fatua, soil, read-out: Growth inhibition rate (%) of wild oat, Measured value",0%
"C#CCN(C)c1c(C#N)cnn1-c1nn2c(c1Cl)CCCC2 [Pyraclonil, pyraclonil]","Growth inhibition rate (%) of japanese millet, Measured value","[5]; dose 100 g/ha, soil treatment, 14th day after treatment",30%
same,"Growth inhibition rate (%) of wild oat, Measured value","[7]; dose 250 g/ha, soil treatment, 28th day after treatment",40%
"CCOC(=O)COc1cc(-c2nn(C)c(OC(F)F)c2Cl)c(F)cc1Cl [Pyraflufen-ethyl, pyraflufen-ethyl]",inhibition at 10 g/ha,[9],58%
same,inhibition at 2.5 g/ha,"[11]; Solanum nigrum, read-out: Growth inhibition rate (%) of black nightshade, Measured value",88%
same,inhibition at 10 g/ha,[12],43%
same,inhibition at 80 g/ha,[3],80%
same,inhibition at 10 g/ha,[17]; [21],20%
same,inhibition at 50 g/ha,[17]; [21],45%
same,inhibition at 40 g/ha,[19],0%
"CC(C)N(C)S(=O)(=O)NC(=O)c1cc(-n2c(=O)cc(C(F)(F)F)n(C)c2=O)c(F)cc1Cl [Saflufenacil, saflufenacil]",inhibition at 100 g/ha,[6]; dose 100 g/ha,20%
same,inhibition at 50 g/ha,"[7]; Avena fatua, dose 50 g/ha, soil treatment, 28th day after treatment, read-out: Growth inhibition rate (%) of wild oat, Measured value",0%
same,inhibition at 25 g/ha,[14],15%
same,inhibition at 50 g/ha,[14]; dose 50 g/ha,5%
same,inhibition at 5 g/ha,[18]; dose 5 g/ha,0%
same,inhibition at 10 g/ha,[18]; dose 10 g/ha,65%
"Cc1nn(-c2cc(NS(C)(=O)=O)c(Cl)cc2Cl)c(=O)n1C(F)F [Sulfentrazone, sulfentrazone]",inhibition at 500 g/ha,"[8]; Crotalaria juncea, dose 500 g/ha, read-out: Growth inhibition rate (%) of sunn-hemp, Measured value",30%
same,inhibition at 25 g/ha,[18]; dose 25 g/ha,20%
same,inhibition at 50 g/ha,[4]; [20],30%
oxadiargyl,"Growth inhibition rate (%) of rostrate sesbania, Measured value",[10]; dose 400 g/ha,20%
same,"Growth inhibition rate (%) of wild oat, Measured value",[14]; dose 50 g/ha,5%
same,"Growth inhibition rate (%) of wild oat, Measured value",[14]; dose 800 g/ha,20%
same,"Growth inhibition rate (%) of sunn-hemp, Measured value","[17]; dose 400 g/ha, soil treatment, 28th day after treatment",40%
